Measured values: patent US20110190503A1, “Thiazolopyridin-2-yloxy-phenyl and thiazolopyrazin-2-yloxy-phenyl amines as modulators of leukotriene A4 hydrolase” (Janssen Pharmaceutical NV, priority 2008, published 2011)
Where two headings read alike, the source gives them in different places.

Legend:
[1] = system: LTB4 production by calcium ionophore-stimulated murine blood; experiment: LTB4 production by calcium ionophore-stimulated murine blood for LTA4H inhibitor activity; format: cell-based, CD-1 mice; conditions: murine blood diluted 1 in 15, calcium ionophore A23187, LTB4 by immunoassay, read-out: IC50
Procedure: Assay 2: LTB4 Production by Calcium Ionophore-Stimulated Murine Blood for LTA4H Inhibitor Activity
CD-1 mice were sacrificed, and blood was collected in heparin-containing syringes by cardiac puncture. […] After the microtiter plate contents were incubated for 15 min at 37° C. in a humidified incubator, calcium ionophore A23187 (Sigma Chemical Co., St. Louis, Mo.) was added to each sample well (final concentration=7 μg/mL). The incubation was continued under the same conditions for an additional 30 min to allow LTB4 formation. The reaction was terminated by centrifugation (833×g, 10 min at 4° C.), and supernatants were analyzed for LTB4 by a commercially available enzyme-linked immunoassay (Cayman Chemical Co.) according to the manufacturer's instructions. Positive controls, under essentially identical conditions but without addition of an inhibitor compound, and negative unstimulated controls, containing all assay components except calcium ionophore, were routinely run in each experiment. […] The values presented here are the result of a single determination or an average of two or more determinations, as indicated in parentheses following each value. For compounds tested three or more times, the average value is followed by the standard deviation

[2] = biological target: T1, recombinant human LTA4 hydrolase (rhLTA4H) (Homo sapiens, UniProt P09960); experiment: Recombinant human LTA4 hydrolase assay for LTA4 hydrolase inhibitor activity; format: biochemical; conditions: rhLTA4H, LTA4 substrate, LTB4 by immunoassay; single determination or average; read-out: IC50
T1 construct: made in house; host or cells: Spodoptera frugiperda (Sf-9) cells, recombinant baculovirus (pFastBac1)
T1 sequence (P09960 1-611): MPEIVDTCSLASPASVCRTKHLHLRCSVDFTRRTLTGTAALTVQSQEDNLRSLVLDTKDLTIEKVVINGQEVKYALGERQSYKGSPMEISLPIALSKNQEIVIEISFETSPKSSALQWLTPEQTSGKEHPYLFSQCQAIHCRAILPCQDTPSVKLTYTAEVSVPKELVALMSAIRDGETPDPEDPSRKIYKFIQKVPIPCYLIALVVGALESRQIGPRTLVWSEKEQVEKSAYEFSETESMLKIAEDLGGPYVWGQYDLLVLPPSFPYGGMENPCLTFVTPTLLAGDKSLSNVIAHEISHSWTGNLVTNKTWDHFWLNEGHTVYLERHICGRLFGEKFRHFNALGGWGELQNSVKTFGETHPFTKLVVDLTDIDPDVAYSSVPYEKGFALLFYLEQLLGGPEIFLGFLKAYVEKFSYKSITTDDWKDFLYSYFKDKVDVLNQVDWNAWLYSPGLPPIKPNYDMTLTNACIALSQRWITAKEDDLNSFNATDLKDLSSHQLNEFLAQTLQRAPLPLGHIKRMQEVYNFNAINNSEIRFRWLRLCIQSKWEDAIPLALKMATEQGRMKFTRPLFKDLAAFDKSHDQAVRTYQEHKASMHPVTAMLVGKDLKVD
Summary of the method: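 LTB4 formed from LTA4 substrate (free acid from the methyl ester) was quantified by enzyme immunoassay after a 30 min rt reaction. Enzyme was 10 ng Sf-9-expressed human LTA4 hydrolase, pre-incubated 10 min with compound.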

SMILES	IC50 ([1]; Mus musculus) [µM]	IC50 [2] [µM]	IC50 [1] [µM]
c1ccc2c(c1)CCN(CCOc1ccc(Oc3nc4ncccc4s3)cc1)C2 [Example 6, 2-{2-[4-([1,3]Thiazolo[4,5-b]pyridin-2-yloxy)phenoxy]ethyl}-1,2,3,4-tetrahydroisoquinoline]	0.064	0.009	–
NC(=O)C1CCN(Cc2ccc(Oc3nc4ncc(Cl)cc4s3)cc2)CC1 [Example 284, 1-{4-[(6-Chloro[1,3]thiazolo[4,5-b]pyridin-2-yl)oxy]benzyl}piperidine-4-carboxamide]	0.64	0.089	–
CC(=O)N1[C@@H]2CC[C@H]1CN(CCOc1ccc(Oc3nc4ncccc4s3)cc1)C2 [Example 162, meso-2-{[4-({2-[8-Acetyl-3,8-diazabicyclo[3.2.1]oct-3-yl]ethyl}oxy)phenyl]oxy}[1,3]thiazolo[4,5-b]pyridine]	0.012	0.003	–
CC(=O)N1C[C@H]2CC[C@@H](C1)N2CCc1ccc(Oc2nc3cccnc3s2)cc1 [Example 53, meso-2-(4-{2-[3-Acetyl-3,8-diazabicyclo[3.2.1]oct-8-yl]ethyl}phenoxy)[1,3]thiazolo[5,4-b]pyridine]	2.5	0.058	–
CC(=O)N1C2CCC1CN(Cc1ccc(Oc3nc4ncccc4s3)cc1)C2 [Example 185, meso-2-[(4-{[8-Acetyl-3,8-diazabicyclo[3.2.1]oct-3-yl]methyl}phenyl)oxy][1,3]thiazolo[4,5-b]pyridine]	–	0.007	0.85
OC1(c2ccccc2)CCN(Cc2ccc(Oc3nc4ncccc4s3)cc2)CC1 [Example 105, 4-Phenyl-1-[4-([1,3]thiazolo[4,5-b]pyridin-2-yloxy)benzyl]piperidin-4-ol]	0.015	0.00053	–
O[C@@H]1CCN(Cc2ccc(Oc3nc4ncccc4s3)cc2)C1 [Example 94, (3R)-1-[4-([1,3]Thiazolo[4,5-b]pyridin-2-yloxy)benzyl]pyrrolidin-3-ol]	0.035	0.004	–
CCCCN(CC)CCc1ccc(Oc2nc3ncc(C)cc3s2)cc1 [Example 178, N-Ethyl-N-(2-{4-[(6-methyl[1,3]thiazolo[4,5-b]pyridin-2-yl)oxy]phenyl}ethyl)butan-1-amine]	0.26	0.011	–
NC(=O)N[C@H]1C[C@H]2CC[C@@H](C1)N2CCc1ccc(Oc2nc3ncccc3s2)cc1 [Example 77, meso-1-[(3-endo)-8-{2-[4-([1,3]Thiazolo[4,5-b]pyridin-2-yloxy)Phenyl]ethyl}-8-azabicyclo[3.2.1]oct-3-yl]urea]	0.19	0.0029	–
OC1(c2cccc(C(F)(F)F)c2)CCN(Cc2ccc(Oc3nc4ncccc4s3)cc2)CC1 [Example 103, 1-[4-([1,3]Thiazolo[4,5-b]pyridin-2-yloxy)benzyl]-4-[3-(trifluoromethyl)phenyl]piperidin-4-ol]	0.12	0.01	–
c1cnc2nc(Oc3ccc(CN4CCC(Oc5ccncc5)CC4)cc3)sc2c1 [Example 262, 2-(4-{[4-(Pyridin-4-yloxy)piperidin-1-yl]methyl}phenoxy)[1,3]thiazolo[4,5-b]pyridine]	0.097	0.003	–
CC(=O)N1C[C@H]2CC[C@@H](C1)N2CCOc1ccc(Oc2nc3ncccc3s2)cc1 [Example 141, meso-2-{4-[2-(3-Acetyl-3,8-diazabicyclo[3.2.1]oct-8-yl)ethoxy]phenoxy}[1,3]thiazolo[4,5-b]pyridine]	0.014	0.002	–
CC(=O)N[C@H]1C[C@H]2CC[C@@H](C1)N2Cc1ccc(Oc2nc3cnccc3s2)cc1 [Example 134, meso-N-{(3-endo)-8-[4-([1,3]Thiazolo[4,5-c]pyridin-2-yloxy)benzyl]-8-azabicyclo[3.2.1]oct-3-yl}acetamide]	0.18	0.038	–
NC(=O)N[C@@H]1C[C@H]2CC[C@@H](C1)N2CCc1ccc(Oc2nc3ncccc3s2)cc1 [Example 50, meso-1-[(3-exo)-8-{2-[4-([1,3]Thiazolo[4,5-b]pyridin-2-yloxy)phenyl]ethyl}-8-azabicyclo[3.2.1]oct-3-yl]urea]	2.3	0.002	–
c1ccc(OC2CCN(Cc3ccc(Oc4nc5ncccc5s4)cc3)CC2)nc1 [Example 261, 2-(4-{[4-(Pyridin-2-yloxy)piperidin-1-yl]methyl}phenoxy)[1,3]thiazolo[4,5-b]pyridine]	0.038	0.007	–

The remaining lines, values ahead:

IC50 ([1]; Mus musculus) [µM]	IC50 [2] [µM]	IC50 [1] [µM]	SMILES
0.14	0.019	–	c1ccc(C2CCN(CCOc3ccc(Oc4nc5ncccc5s4)cc3)CC2)nc1 [Example 34, 2-{4-[2-(4-Pyridin-2-ylpiperidin-1-yl)ethoxy]phenoxy}[1,3]thiazolo[4,5-b]pyridine]
0.043	0.008	–	c1ccc(OC2CCN(Cc3ccc(Oc4nc5ncccc5s4)cc3)CC2)cc1 [Example 260, 2-{4-[(4-Phenoxypiperidin-1-yl)methyl]phenoxy}[1,3]thiazolo[4,5-b]pyridine]
0.95	0.061	–	c1ccc(C2CCN(CCOc3ccc(Oc4nc5cccnc5s4)cc3)CC2)nc1 [Example 38, 2-{4-[2-(4-Pyridin-2-ylpiperidin-1-yl)ethoxy]phenoxy}[1,3]thiazolo[5,4-b]pyridine]
0.38	0.052	–	c1ccc(CC2CCN(CCOc3ccc(Oc4nc5ncccc5s4)cc3)CC2)cc1 [Example 28, 2-{4-[2-(4-Benzylpiperidin-1-yl)ethoxy]phenoxy}[1,3]thiazolo[4,5-b]pyridine]
0.23	0.0065	–	NC(=O)N1CC2CN(CCc3ccc(Oc4nc5ncccc5s4)cc3)CC2C1 (stereo not shown) [Example 74, 5-{2-[4-([1,3]Thiazolo[4,5-b]pyridin-2-yloxy)Phenyl]ethyl}hexahydropyrrolo[3,4-c]pyrrole-2(1H)-carboxamide]
0.26	0.2	–	NC(=O)C1CCN(CCOc2ccc(Oc3nc4nccnc4s3)cc2)CC1 [Example 26, 1-{2-[4-([1,3]Thiazolo[4,5-b]pyrazin-2-yloxy)phenoxy]ethyl}piperidine-4-carboxamide]
0.7	0.22	–	CC(=O)N1C[C@@H]2C[C@H]1CN2Cc1ccc(Oc2nc3cccnc3s2)cc1 [Example 124, 2-(4-{[(1S,4S)-5-Acetyl-2,5-diazabicyclo[2.2.1]hept-2-yl]methyl}phenoxy)[1,3]thiazolo[5,4-b]pyridine]
0.19	0.098	–	c1cnc2nc(Oc3ccc(OCCN4CCOCC4)cc3)sc2c1 [Example 11, 2-[4-(2-Morpholin-4-ylethoxy)phenoxy][1,3]thiazolo[4,5-b]pyridine]
0.68	0.039	–	c1cnc2nc(Oc3ccc(CNCCN4CCCCC4)cc3)sc2c1 [Example 91, 2-Piperidin-1-yl-N-[4-([1,3]thiazolo[4,5-b]pyridin-2-yloxy)benzyl]ethanamine]
0.16	0.011	–	c1ccc(OC2CCN(CCOc3ccc(Oc4nc5ncccc5s4)cc3)CC2)nc1 [Example 12, 2-(4-{2-[4-(Pyridin-2-yloxy)piperidin-1-yl]ethoxy}phenoxy)[1,3]thiazolo[4,5-b]pyridine]
0.11	0.018	–	c1cnc(OC2CCN(Cc3ccc(Oc4nc5nccnc5s4)cc3)CC2)nc1 [Example 184, 2-[(4-{[4-(Pyrimidin-2-yloxy)piperidin-1-yl]methyl}phenyl)oxy][1,3]thiazolo[4,5-b]pyrazine]
